Test results from patent US7541368B2, “Pyrazoles as inhibitors of tumor necrosis factor” (Aventis Pharmaceuticals Inc., priority 2003, dated 2009).
Like-named read-outs stand apart in the source and are kept apart here.

What was measured:
[1] = tested on: Human HSP27 phosphorylation; assay: HSP27 phosphorylation in LPS stimulated THP-1 cells; assay type: cell-based; conditions: Western blot, read-out: HSP-27
Protocol: The effects of compounds on Heat Shock Protein (HSP)-27 phosphorylation in LPS stimulated THP-1 cells were examined as follows:
THP-1 cells were maintained as described for the TNF-alpha assay (1.1.).
THP-1 cells (1×10 ^6 cells/ml, total volume 1 ml) in culture medium were incubated for one hour (5% CO2, 37° C.) with fresh medium containing compounds (0.0001-30 μM) or vehicle (0.1% DMSO). LPS ([…]) was then added to the cells (except the untreated cell sample) and the incubation continued for a further 20 minutes. Cells were collected, centrifuiged and washed with ice-cold PBS buffer (free of Ca^2+ and Mg^2+). Cell lysates were prepared with 1× lysis buffer (Promega Catalog# E153A) for storage at −20° C.
HSP27 phosphorylation was determined by Western blot-enhanced chemi-luminescence (ECL-Amersham)). Briefly, cell lysates were electrophoresed on 12% Tris-glycine gels and transferred to nitrocellulose membranes. The membranes were then probed with primary rabbit antiphospho-HSP27 (ser82) antibody and secondary anti-rabbit antibody conjugated to horse raddish peroxidase. After addition of the ECL detection reagent, the film was developed and the p-HSP27 immunoreactivity quantified by densitometry.

[2] = target: T1, Inactive N-terminal His6 tagged murine P38 (Mus musculus, UniProt P47811); assay: p38 cascade assay (HTRF; inactive p38 activated by MKK-6, ATF-2 phosphorylation); assay type: biochemical; conditions: inactive p38 preincubated with compound, then MKK-6, ATF-2, ATP; read-out: 50% inhibition in the p38 cascade assay at concentrations within the range
T1 construct: His6 (N); made in house

[3] = target: T2, Murine p38 (Mus musculus, UniProt P47811); assay: Murine p38α standard assay against pre-activated p38 (ATF-2 phosphorylation, DELFIA); assay type: biochemical; conditions: murine p38, ATF-2 substrate
T2 construct: purchased CalBiochem 506122
Protocol: Compounds of the invention were tested in a conventional assay against pre-activated p38. Murine p38 enzyme activity was determined by measuring the incorporation of the γ-phosphate of ATP into ATF-2.
Human GST-tagged ATF-2 (50 μg/ml) was coated onto 96 well plates. Assay buffer (25 mM Hepes buffer, pH 7.7 containing 25 mM magnesium chloride, 2 mM dithiothreitol, 1 mM sodium orthovanadate and 100 μM ATP) was then added to each well. Compounds were dissolved in DMSO (100%) and added to the assay buffer to give a fmal DMSO concentration of 0.3%. Murine p38 (CalBiochem Catalog # 506122; 40 ng/ml) was then added and the assay continued for 1 hour.
Phosphorylated ATF-2 was quantitated using a rabbit anti-human phospho (threonine 71)-specific ATF-2 primary antibody (Cell Signaling, Catalog # 9221B) followed by a sheep europium N^1-labelled anti-rabbit IgG secondary antibody (Perkin Elmer Life Sciences Catalog # AD0105) and addition of the DELFIA enhancement solution (Perkin Elmer Life Sciences) resulting.
Fluorescence was measured using a Wallac Victor^2 1420 multi-label HTS counter (Perkin Elmer Life Sciences). The results are reported as IC50 values. Compounds were tested over the concentration range of 3×10^−10M to 3>10^−5M.

[4] = tested on: TNF-alpha release in THP-1 cells; assay: LPS-induced TNF-alpha release in THP-1 cells; assay type: cell-based; conditions: Homo sapiens, THP-1, LPS-stimulated THP-1 cells
Summary of the method: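 Undifferentiated THP-1 monocytes (1×10^6 cells/ml, 1% FCS) preincubated 1 h at 37° C with compound (1×10^−9 to 1×10^−6 M, 0.3% DMSO), then stimulated with LPS (20 μg/ml) for 18 h. Supernatant TNF-alpha measured by sandwich ELISA (TMB read-out), interpolated from a log/log standard curve (0.125-16 ng/ml).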

T2 sequence (P47811 whole entry): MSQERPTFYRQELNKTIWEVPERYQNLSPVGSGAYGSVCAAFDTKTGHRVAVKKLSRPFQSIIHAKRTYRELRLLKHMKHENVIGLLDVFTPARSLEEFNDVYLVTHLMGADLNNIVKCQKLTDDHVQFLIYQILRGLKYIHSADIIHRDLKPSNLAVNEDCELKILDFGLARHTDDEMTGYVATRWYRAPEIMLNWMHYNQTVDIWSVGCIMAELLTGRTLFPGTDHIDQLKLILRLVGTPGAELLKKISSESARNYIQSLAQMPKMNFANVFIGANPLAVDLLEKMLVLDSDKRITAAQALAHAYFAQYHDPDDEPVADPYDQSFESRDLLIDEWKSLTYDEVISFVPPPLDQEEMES
T1 sequence (P47811 whole entry): as above

Q: Which results are given for `COc1ccc(C(=O)N2CCC(Cc3cccc(NC(=O)Nc4cc(C(C)(C)C)nn4-c4ccc(C)cc4)c3)CC2)c(OC)c1` [Compound A27, 1-(5-tert-butyl-2-p-tolyl-2H-pyrazol-3-yl)-3-{3-[1-(2,4-dimethoxy-benzoyl)-piperidin-4-ylmethyl]-phenyl}-urea]?
A: IC50 [1]: 27 nM; IC50 [2]: 10 to 100 nM; IC50 [3]: 216 nM; IC50 ([4]; TNF-alpha by ELISA, read-out: THP 1 cells): 10.6 nM; IC50 ([4]; read-out: 50% inhibition in the LPS-induced TNF-alpha release in THP-1 cells assay at concentrations within the range): 10 to 500 nM
